From patent publication US12692254B2, “Benzimidazole inhibitors of PAD enzymes” (BRISTOL-MYERS SQUIBB COMPANY, priority 2018, dated 2026)

target: human PAD4 (hPAD4) (Homo sapiens, UniProt Q9UM07); test: RFMS human PAD4 functional assay (rapid-fire mass spectrum); type: biochemical; details: 5 nM hPAD4 enzyme, 250 μM BAEE, 50 μM Calcium; 30 min preincubation, 90 min reaction at 37° C.
Method in brief: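 PAD4 (10 nM) preincubated 30 min with compound (top final 50 μM), then BAEE substrate added in pH 7.5 HEPES buffer with DTT, 50 μM calcium, TPEN; 90 min at 37° C. After TCA quench, citrulline derivatized with phenyl glyoxal (4 mM final, 30 min, 37° C) and quantified by RapidFire MS against internal standard.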

Sequence of human PAD4 (hPAD4) (Q9UM07 whole entry): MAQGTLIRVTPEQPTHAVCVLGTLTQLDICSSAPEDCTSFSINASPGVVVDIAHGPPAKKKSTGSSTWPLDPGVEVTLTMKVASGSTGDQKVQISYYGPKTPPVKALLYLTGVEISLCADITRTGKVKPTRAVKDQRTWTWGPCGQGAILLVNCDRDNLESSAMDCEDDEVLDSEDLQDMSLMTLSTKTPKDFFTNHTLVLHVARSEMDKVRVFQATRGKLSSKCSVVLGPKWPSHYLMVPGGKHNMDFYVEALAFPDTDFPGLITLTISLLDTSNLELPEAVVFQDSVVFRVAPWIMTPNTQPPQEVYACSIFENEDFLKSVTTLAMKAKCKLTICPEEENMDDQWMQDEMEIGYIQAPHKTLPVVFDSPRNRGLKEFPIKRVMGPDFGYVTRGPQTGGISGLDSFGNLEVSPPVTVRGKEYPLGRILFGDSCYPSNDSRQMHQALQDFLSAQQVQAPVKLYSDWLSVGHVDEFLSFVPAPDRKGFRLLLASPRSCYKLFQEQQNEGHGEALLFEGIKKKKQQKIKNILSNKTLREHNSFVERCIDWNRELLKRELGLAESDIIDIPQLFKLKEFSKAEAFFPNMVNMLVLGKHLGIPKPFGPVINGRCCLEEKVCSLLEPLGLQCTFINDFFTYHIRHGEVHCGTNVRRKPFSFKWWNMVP

| IC50 [nM] | Compound |
| --- | --- |
| 108 | COc1cc(C(=O)N2C[C@H]3CC[C@@H]2[C@@H]3N)cc2nc(-c3cc4cccnc4n3CC3CC3)n(CC3CN(C(=O)c4ccnc(Cl)n4)C3)c12 [Example 126, (1R,4R,7R)-2-(1-{[1-(2-chloropyrimidine-4-carbonyl)azetidin-3-yl]methyl}-2-[1-(cyclopropylmethyl)-1H-pyrrolo[2,3-b]pyridin-2-yl]-7-methoxy-1H-1,3-benzodiazole-5-carbonyl)-2-azabicyclo[2.2.1]heptan-7-amine] |
| 30 | COc1cc(C(=O)N2CC3CCC2[C@@H]3N)cc2nc(-c3cc4cccnc4n3CC3CC3)n(Cc3cnn(-c4ccc(F)cn4)c3)c12 (stereo partly drawn) [Example 371, (7R)-2-{2-[1-(cyclopropylmethyl)-1H-pyrrolo[2,3-b]pyridin-2-yl]-1-{[1-(5-fluoropyridin-2-yl)-1H-pyrazol-4-yl]methyl}-7-methoxy-1H-1,3-benzodiazole-5-carbonyl}-2-azabicyclo[2.2.1]heptan-7-amine] |
| 204 | COc1cc(C(=O)N2C[C@H]3CC[C@@H]2[C@@H]3N)cc2nc(-c3cc4cccnc4n3CC3CC3)n(CC3CN(C(=O)c4cc[nH]c(=O)c4)C3)c12 [Example 182, 4-[3-({5-[(1R,4R,7R)-7-amino-2-azabicyclo[2.2.1]heptane-2-carbonyl]-2-[1-(cyclopropylmethyl)-1H-pyrrolo[2,3-b]pyridin-2-yl]-7-methoxy-1H-1,3-benzodiazol-1-yl}methyl)azetidine-1-carbonyl]-1,2-dihydropyridin-2-one] |
| 1000 | COC(=O)N[C@H]1C[C@@H](n2c(-c3cc4cccnc4n3CC3CC3)nc3cc(C(=O)N4CC5CCC4[C@@H]5N)cc(OC)c32)C1 (stereo partly drawn) [Example 301, methyl N-[(1s,3s)-3-{5-[(1R,4R,7R)-7-amino-2-azabicyclo[2.2.1]heptane-2-carbonyl]-2-[1-(cyclopropylmethyl)-1H-pyrrolo[2,3-b]pyridin-2-yl]-7-methoxy-1H-1,3-benzodiazol-1-yl}cyclobutyl]carbamate] |
| 61 | COc1cc(C(=O)N2C[C@H]3CC[C@@H]2[C@@H]3N)cc2nc(-c3cc4cccnc4n3C)n(C[C@H]3CCN(c4ccnc(C5CC5)n4)C3)c12 [Example 209, (1R,4R,7R)-2-(1-{[(3S)-1-(2-cyclopropylpyrimidin-4-yl)pyrrolidin-3-yl]methyl}-7-methoxy-2-{1-methyl-1H-pyrrolo[2,3-b]pyridin-2-yl}-1H-1,3-benzodiazole-5-carbonyl)-2-azabicyclo[2.2.1]heptan-7-amine] |
| 116 | COc1cc(C(=O)N2C[C@H](N)C[C@@H](F)C2)cc2nc(-c3cc4ccccc4n3CC3CC3)n(Cc3cccnc3)c12 [Example 248, ((3R,5R)-3-amino-5-fluoropiperidin-1-yl)(2-(1-(cyclopropylmethyl)-1H-indol-2-yl)-7-methoxy-1-(pyridin-3-ylmethyl)-1H-benzo[d]imidazol-5-yl)methanone] |
| 29 | COc1cc(C(=O)N2CC3CCC2[C@@H]3N)cc2nc(-c3cc4cccnc4n3CC3CC3)n(Cc3cnn(-c4ccccc4)c3)c12 (stereo partly drawn) [Example 367, (7R)-2-{2-[1-(cyclopropylmethyl)-1H-pyrrolo[2,3-b]pyridin-2-yl]-7-methoxy-1-[(1-phenyl-1H-pyrazol-4-yl)methyl]-1H-1,3-benzodiazole-5-carbonyl}-2-azabicyclo[2.2.1]heptan-7-amine] |
| 222 | COc1cc(C(=O)N2CC3CCC2[C@@H]3N)cc2nc(-c3cc4cccnc4n3CC3CC3)n(CC3CN(S(=O)(=O)c4cccc(F)c4)C3)c12 (stereo partly shown) [Example 333] |
| 59 | COc1cc(C(=O)N2C[C@H]3CC[C@@H]2[C@@H]3N)cc2nc(-c3cc4cccnc4n3CC3CC3)n(CC3CN(C(=O)CC4CC4)C3)c12 [Example 115, 1-[3-({5-[(1R,4R,7R)-7-amino-2-azabicyclo[2.2.1]heptane-2-carbonyl]-2-[1-(cyclopropylmethyl)-1H-pyrrolo[2,3-b]pyridin-2-yl]-7-methoxy-1H-1,3-benzodiazol-1-yl}methyl)azetidin-1-yl]-2-cyclopropylethan-1-one] |
| 124 | COc1cc(C(=O)N2C[C@H]3CC[C@@H]2[C@@H]3N)cc2nc(-c3cc4cccnc4n3CC3CC3)n(C3CN(c4ccnc(C#N)n4)C3)c12 [Example 68, 4-(3-{5-[(1R,4R,7R)-7-amino-2-azabicyclo[2.2.1]heptane-2-carbonyl]-2-[1-(cyclopropylmethyl)-1H-pyrrolo[2,3-b]pyridin-2-yl]-7-methoxy-1H-1,3-benzodiazol-1-yl}azetidin-1-yl)pyrimidine-2-carbonitrile] |
| 245 | COc1cc(C(=O)N2C[C@H]3CC[C@@H]2[C@@H]3N)cc2nc(-c3cc4cccnc4n3CC3CC3)n(CC3CN(S(=O)(=O)C(C)C)C3)c12 [Example 335, (1R,4R,7R)-2-{2-[1-(cyclopropylmethyl)-1H-pyrrolo[2,3-b]pyridin-2-yl]-7-methoxy-1-{[1-(propane-2-sulfonyl)azetidin-3-yl)methyl}-1H-1,3-benzodiazole-5-carbonyl}-2-azabicyclo[2.2.1]heptan-7-amine] |
| 102 | COc1cc(C(=O)N2CC3CCC2[C@@H]3N)cc2nc(-c3cc4cccnc4n3CC3CC3)n(Cc3ccnn3C)c12 (stereo partly drawn) [Example 496, (7R)-2-{2-[1-(cyclopropylmethyl)-1H-pyrrolo[2,3-b]pyridin-2-yl]-7-methoxy-1-[(1-methyl-1H-pyrazol-5-yl)methyl]-1H-1,3-benzodiazole-5-carbonyl}-2-azabicyclo[2.2.1]heptan-7-amine] |
| 131 | COc1cc(C(=O)N2C[C@H]3CC[C@@H]2[C@@H]3N)cc2nc(-c3cc4cccnc4n3CC3CC3)n(CC3CCN(C(=O)c4ccnc(Cl)c4)CC3)c12 [Example 198, (1R,4R,7R)-2-(1-{[1-(2-chloropyridine-4-carbonyl)piperidin-4-yl]methyl}-2-[1-(cyclopropylmethyl)-1H-pyrrolo[2,3-b]pyridin-2-yl]-7-methoxy-1H-1,3-benzodiazole-5-carbonyl)-2-azabicyclo[2.2.1]heptan-7-amine] |
| 14 | COc1cc(C(=O)N2C[C@H]3CC[C@@H]2[C@@H]3N)cc2nc(-c3cc4ccccc4n3CC3CC3)n(CC3CN(C(=O)c4cccc(C#N)c4)C3)c12 [Example 141, 3-[3-({5-[(1R,4R,7R)-7-amino-2-azabicyclo[2.2.1]heptane-2-carbonyl]-2-[1-(cyclopropylmethyl)-1H-indol-2-yl]-7-methoxy-1H-1,3-benzodiazol-1-yl}methyl)azetidine-1-carbonyl]benzonitrile] |
| 41 | COc1cc(C(=O)N2C[C@H](N)C[C@@H](F)C2)cc2nc(-c3cc4ccccc4n3CC3CC3)n(Cc3cnn(C)c3)c12 [Example 257, (3R,5R)-1-{2-[1-(cyclopropylmethyl)-1H-indol-2-yl]-7-methoxy-1-[(1-methyl-1H-pyrazol-4-yl)methyl]-1H-1,3-benzodiazole-5-carbonyl}-5-fluoropiperidin-3-amine] |
| 101 | COc1cc(C(=O)N2C[C@H]3CC[C@@H]2[C@@H]3N)cc2nc(-c3cc4ccccc4n3C)n(CC3CN(C(=O)c4ccccc4)C3)c12 [Example 181, (1R,4R,7R)-2-{1-[(1-benzoylazetidin-3-yl)methyl]-7-methoxy-2-(1-methyl-1H-indol-2-yl)-1H-1,3-benzodiazole-5-carbonyl}-2-azabicyclo[2.2.1]heptan-7-amine] |
| 57 | CCS(=O)(=O)N1CC(n2c(-c3cc4cccnc4n3CC3CC3)nc3cc(C(=O)N4CC5CCC4[C@@H]5N)cc(OC)c32)C1 (stereo partly drawn) [Example 327, (1R,4R.,7R)-2-{2-[1-(cyclopropylmethyl)-1H-pyrrolo[2,3-b]pyridin-2-yl]-1-[1-(ethanesulfonyl)azetidin-3-yl]-7-methoy-1H-1,3-benzodiazole-5-carbonyl}-2-azabicyclo[2.2.1]heptan-7-amine] |
| 23 | COc1cc(C(=O)N2CC3CCC2[C@@H]3N)cc2nc(-c3cc4ccccc4n3CC3CC3)n(Cc3cnn(-c4cnc(O)c(F)c4)c3)c12 (stereo partly drawn) [Example 357, 5-[4-({5-[(7R)-7-amino-2-azabicyclo[2.2.1]heptane-2-carbonyl]-2-[1-(cyclopropylmethyl)-1H-indol-2-yl]-7-methoxy-1H-1,3-benzodiazol-1-yl}methyl)-1H-pyrazol-1-yl]-3-fluoropyridin-2-ol] |
| 86 | COc1cc(C(=O)N2CC3CCC2[C@@H]3N)cc2nc(-c3cc4ccc(C(C)O)cc4n3CC3CC3)n(CC3CN(C(=O)c4ccccc4)C3)c12 (stereo partly drawn) [Example 521, l-(2-{5-[(7R)-7-amino-2-azabicyclo[2.2.1]heptane-2-carbonyl]-1-[(1-benzoylazetidin-3-yl)methyl]-7-methoxy-1H-1,3-benzodiazol-2-yl}-1-(cyclopropylmethyl)-1H-indol-6-yl)ethan-1-ol] |
| 440 | COc1cc(C(=O)N2C[C@H]3CC[C@@H]2[C@@H]3N)cc2nc(-c3cc4cccnc4n3C)n(CC3CN(c4ncccn4)C3)c12 [Example 83, (1R,4R,7R)-2-(7-methoxy-2-{1-methyl-1H-pyrrolo[2,3-b]pyridin-2-yl}-1-{[1-(pyrimidin-2-yl)azetidin-3-yl]methyl}-1H-1,3-benzodiazole-5-carbonyl)-2-azabicyclo[2.2.1]heptan-7-amine] |
| 58 | COc1cc(C(=O)N2CC3CCC2[C@@H]3N)cc2nc(-c3cc4ccccc4n3CC3CC3)n(Cc3cn[nH]n3)c12 (stereo partly drawn) [Example 490, (7R)-2-{2-[1-(cyclopropylmethyl)-1H-indol-2-yl]-7-methoxy-1-[(2H-1,2,3-triazol-4-yl)methyl]-1H-1,3-benzodiazole-5-carbonyl}-2-azabicyclo[2.2.1]heptan-7-amine] |
| 87 | COc1cc(C(=O)N2C[C@H]3CC[C@@H]2[C@@H]3N)cc2nc(-c3cc4cccnc4n3CC3CC3)n(C3CN(c4ccnc(C5CC5)n4)C3)c12 [Example 70, (1R,4R,7R)-2-{2-[1-(cyclopropylmethyl)-1H-pyrrolo[2,3-b]pyridin-2-yl]-1-[1-(2-cyclopropylpyrimidin-4-yl)azetidin-3-yl]-7-methoxy-1H-1,3-benzodiazole-5-carbonyl}-2-azabicyclo[2.2.1]heptan-7-amine] |
